Results on 12 compounds are retold here after US20080234130A1, “Compositions providing tolerance to multiple herbicides and methods of use thereof” (priority 2005, published 2008).

In data set [1] the test system is control maize. Kind of data set: Postemergence herbicide spray at V2, injury evaluated 10-14 days after application. In kind it is in vivo. Particulars: tribenuron, chlorimuron, imazapyr 200 g ai/ha, metsulfuron-methyl 0.5 oz ai/ac or 35 g ai/ha, 10-14 days after spray.
Data set [2] concerns heterozygous GAT-HRA corn. Briefly: Preemergence effect of ALS herbicides (fresh weight, visual injury). Particulars: 200 g/ha, mean of four replications; for % Visual Injury Heterozygous GAT-HRA: 4 weeks after treatment, 0% no injury, 100% plant death; for Fresh Weight (g) Heterozygous GAT-HRA: fresh shoots 4 weeks after treatment, untreated 47.0 g.
The test system of data set [3] is GAT-HRA maize. Briefly: Postemergence herbicide spray at V2, injury evaluated 10-14 days after application. On the procedure:
GAT-HRA maize plants were evaluated for tolerance to glyphosate and other herbicides. One protocol used in this evaluation was as follows. At the V2 stage (Ritchie and Hanway (1982), “How a corn plant develops” Spec. Rep. 48. (Coop. Ext. Ser., Iowa State Univ., Ames, Iowa)), plant heights were measured and herbicides were applied by spray application. Ten to fourteen days after the spray application, the transgenic plants were evaluated for injury symptoms and measured for plant height again in order to determine plant growth rates.
Plants were then evaluated at various times after treatment, such as 10 or 14 days after treatment. […] Leaf samples were taken from GAT-HRA plants and used in quantitative PCR analysis and other analyses to determine the number and arrangement of copies of the GAT and HRA polynucleotides that had been integrated into the plant genome.
Other protocols for evaluation included treatment with imidazolinone herbicides, such as the commercial herbicide Lightning® (a combination of imazapyr and imazethapyr), which was applied to GAT-HRA maize at the V2 leaf stage at four times the field label rate (250 g ai/ha). […] Another protocol for evaluation included treatment with imidazolinone herbicides as well as sulfonylurea and glyphosate herbicides. In these tests, GAT-HRA maize was treated with various combinations of Lightning® (imazapyr and imazethapyr), Basis® (rimsulfuron and thifensulfuron-methyl) and WeatherMAX® (glyphosate potassium salt). These herbicides were applied at the V2 stage as follows: Lightning® at twice the field label rate (1.8 oz ai/ac (133 ml ai/ha)), Basis® at twice the field label rate (0.5 oz ai/ac (36.9 ml ai/ha)) and WeatherMax® at four times the field label rate (43 oz ai/ac). Fourteen days after the treatment application, the plants were evaluated. […] “Field label rate” refers to the application rate specified on the product label. Where the application rate for a particular situation is a range of rates, as used herein, the term “field label rate” indicates the upper end of that range. […]

Data set [4] relates to heterozygous GAT-HRA corn. Briefly: Postemergence effect of ALS herbicides, glyphosate and glufosinate (fresh weight, visual injury). Particulars: 200 g/ha (glyphosate 3472 g ae/ha, glufosinate ammonium 1870 g/ha), mean of four replications; for % Visual Injury Heterozygous GAT-HRA: 2 weeks after treatment, 0% no injury, 100% plant death; for Fresh Weight (g) Heterozygous GAT-HRA: applied two weeks after planting, fresh shoots 2 weeks after treatment, untreated 98.8 g.

The test system of data set [5] is parent elite stiff stalk inbred corn. The description is as above. Particulars: 200 g/ha (glyphosate 3472 g ae/ha, glufosinate ammonium 1870 g/ha), mean of four replications; for % Visual Injury Parent elite stiff stalk inbred: 2 weeks after treatment, 0% no injury, 100% plant death; for Fresh Weight (g) Parent elite stiff stalk inbred: applied two weeks after planting, fresh shoots 2 weeks after treatment, untreated 76.4 g.

Data set [6] has the same test system. Briefly: Preemergence effect of ALS herbicides (fresh weight, visual injury). Particulars: 200 g/ha, mean of four replications; for % Visual Injury Patent elite stiff stalk inbred: 4 weeks after treatment, 0% no injury, 100% plant death; for Fresh Weight (g) patent elite stiff stalk inbred: fresh shoots 4 weeks after treatment, untreated 36.7 g.
Data set [7] relates to non-transgenic control soybeans. Briefly: Postemergence greenhouse spray of soybeans, visual injury (Table 11). Particulars: tribenuron-methyl 35 g/ha. Here is the method: Young regenerated transgenic plants were sprayed with 1× glyphosate (1× rate of glyphosate is 1120 g/ha of glyphosate isopropylamine) to cull segregants. Four replications were performed for each treatment. Plants were then treated with various herbicides, including glyphosate and ALS-inhibitor herbicides.
Six soybean seeds from each variety to be assayed were planted 1 cm deep in 5.5 (13.97 cm) inch square plastic container of a synthetic growth medium. […] When possible, containers were thinned to two uniform plants. Non-transgenic lines were thinned to two uniform plants per container.
Results are expressed below in Table 11 as the mean of four replications.

For `CCOC(=O)c1ccccc1S(=O)(=O)NC(=O)Nc1nc(Cl)cc(OC)n1` [Chlorimuron-ethyl, ethyl 2-[[[[(4-chloro-6-methoxy-2-pyrimidinyl)amino]carbonyl]amino]sulfonyl]-benzoate], the “damage from the treatment, control maize” value in data set [1] is “severely damaged or killed”. Besides, in data set [2], the “% Visual Injury Heterozygous GAT-HRA” value was found to be 10% and the “Fresh Weight (g) Heterozygous GAT-HRA” value was found to be 39.4 g. Moreover, the “damage from the treatment, GAT-HRA maize” value in data set [3] (postemergence spray at V2, tribenuron (Express), chlorimuron (Classic), imazapyr (Arsenal) 200 g ai/ha, metsulfuron-methyl (Ally) 0.5 oz ai/ac or 35 g ai/ha, 10-14 days after spray) is reported as “no significant damage”. In data set [4], the “% Visual Injury Heterozygous GAT-HRA” value came to 15% and the “Fresh Weight (g) Heterozygous GAT-HRA” value is 95.5 g. Moreover, in data set [5], the “% Visual Injury Parent elite stiff stalk inbred” value was determined as 93% and the “Fresh Weight (g) Parent elite stiff stalk inbred” value is 10.1 g. Also, in data set [6], the “% Visual Injury Patent elite stiff stalk inbred” value was determined as 100% and the “Fresh Weight (g) patent elite stiff stalk inbred” value is listed as 9.3 g.

In the case of `CC(C)C1(C)N=C(c2ncccc2C(=O)O)NC1=O` (stereo not drawn) [Imazapyr], the “damage from the treatment, control maize” value in data set [1] was “severely damaged or killed”. Besides, the entries for the “% Visual Injury Heterozygous GAT-HRA” value in data set [2] and in data set [4] were 30% and 1%, respectively. The “damage from the treatment, GAT-HRA maize” value in data set [3] (in vivo) is on record as “no significant damage”. Besides, the “% Visual Injury Parent elite stiff stalk inbred” value in data set [5] was 100%. Besides, in data set [6], the “% Visual Injury Patent elite stiff stalk inbred” value amounted to 99%.

On to `COc1nc(C)nc(NC(=O)NS(=O)(=O)c2ccccc2CCC(F)(F)F)n1` [Prosulfuron, N-[[(4-methoxy-6-methyl-1,3,5-triazin-2-yl)amino]carbonyl]-2-(3,3,3-trifluoropropyl)benzenesulfonamide], for which the results for the “% Visual Injury Heterozygous GAT-HRA” value in data set [2] and in data set [4] were 9% and 29%, respectively. The “% Visual Injury Parent elite stiff stalk inbred” value in data set [5] stood at 25%. Also, the “% Visual Injury Patent elite stiff stalk inbred” value in data set [6] is on record as 68%.

Take `CO/N=C(/C)c1cccc(Oc2nc(OC)cc(OC)n2)c1C(=O)OC` [Pyriminobac-methyl]: in data set [2], the “% Visual Injury Heterozygous GAT-HRA” value is given as 20% and the “Fresh Weight (g) Heterozygous GAT-HRA” value is 39.9 g. In data set [4], the “% Visual Injury Heterozygous GAT-HRA” value is 4% and the “Fresh Weight (g) Heterozygous GAT-HRA” value stood at 95.2 g. Also, in data set [5], the “% Visual Injury Parent elite stiff stalk inbred” value was determined as 93% and the “Fresh Weight (g) Parent elite stiff stalk inbred” value is given as 7.6 g. Moreover, in data set [6], the “% Visual Injury Patent elite stiff stalk inbred” value is recorded as 83% and the “Fresh Weight (g) patent elite stiff stalk inbred” value was determined as 30.4 g.

Regarding `COc1cc(OC)nc(Sc2cccc(Cl)c2C(=O)[O-])n1.[Na+]` [Pyrithiobac Na^+, pyrithiobac-sodium], in data set [2], the “% Visual Injury Heterozygous GAT-HRA” value is on record as 0% and the “Fresh Weight (g) Heterozygous GAT-HRA” value stood at 48.6 g. Besides, in data set [4], the “% Visual Injury Heterozygous GAT-HRA” value is 9% and the “Fresh Weight (g) Heterozygous GAT-HRA” value is given as 87.9 g. In data set [5], the “% Visual Injury Parent elite stiff stalk inbred” value was 100% and the “Fresh Weight (g) Parent elite stiff stalk inbred” value worked out at 2.8 g. In data set [6], the “% Visual Injury Patent elite stiff stalk inbred” value was found to be 100% and the “Fresh Weight (g) patent elite stiff stalk inbred” value worked out at 0.0 g.

On to `COC(=O)c1ccccc1S(=O)(=O)NC(=O)Nc1nc(C)cc(C)n1` [Sulfometuron-methyl, methyl 2-[[[[(4,6-dimethyl-2-pyrimidinyl)amino]carbonyl]amino]sulfonyl]-benzoate], for which, in data set [2], the “% Visual Injury Heterozygous GAT-HRA” value turned out to be 6% and the “Fresh Weight (g) Heterozygous GAT-HRA” value is listed as 47.3 g. In data set [4], the “% Visual Injury Heterozygous GAT-HRA” value was 2% and the “Fresh Weight (g) Heterozygous GAT-HRA” value came to 104.5 g. Also, in data set [5], the “% Visual Injury Parent elite stiff stalk inbred” value stood at 100% and the “Fresh Weight (g) Parent elite stiff stalk inbred” value came to 2.0 g. In data set [6], the “% Visual Injury Patent elite stiff stalk inbred” value was 100% and the “Fresh Weight (g) patent elite stiff stalk inbred” value was determined as 0.0 g.

Consider `CCS(=O)(=O)c1nc2ccccn2c1S(=O)(=O)NC(=O)Nc1nc(OC)cc(OC)n1` [Sulfosulfuron, N-[[(4,6-dimethoxy-2-pyrimidinyl)amino]carbonyl]-2-(ethylsulfonyl)imidazo[1,2-a]pyridine-3-sulfonamide], for which the figures for the “% Visual Injury Heterozygous GAT-HRA” value in data set [2] and in data set [4] were 18% and 3%, respectively. Moreover, the “% Visual Injury Parent elite stiff stalk inbred” value in data set [5] is on record as 97%. In addition, the “% Visual Injury Patent elite stiff stalk inbred” value in data set [6] is 100%.

Consider `COC(=O)c1sccc1S(=O)(=O)NC(=O)Nc1nc(C)nc(OC)n1` [Thifensulfuron-methyl, methyl 3-[[[[(4-methoxy-6-methyl-1,3,5-triazin-2-yl)amino]carbonyl]amino]sulfonyl]-2-thiophenecarboxylate], for which the results for the “% Visual Injury Heterozygous GAT-HRA” value in data set [2] and in data set [4] were 3% and 10%, respectively. In addition, in data set [5], the “% Visual Injury Parent elite stiff stalk inbred” value is reported as 98%. Besides, the “% Visual Injury Patent elite stiff stalk inbred” value in data set [6] is 88%.

With `COC(=O)c1ccccc1S(=O)(=O)NC(=O)N(C)c1nc(C)nc(OC)n1` [Tribenuron-methyl, methyl 2-[[[[N-(4-methoxy-6-methyl-1,3,5-triazin-2-yl)-N-methylamino]carbonyl]-amino]sulfonyl]benzoate], the “% Visual Injury Heterozygous GAT-HRA” value is 25% in data set [2] and 8% in data set [4]. In addition, the “effect on non-transgenic control soybeans” value in data set [7] was “killed by the treatment”. The “% Visual Injury Parent elite stiff stalk inbred” value in data set [5] is given as 100%. For the same compound, the “% Visual Injury Patent elite stiff stalk inbred” value in data set [6] is listed as 66%.

Take `COc1cc(OC)nc(NC(=O)NS(=O)(=O)c2ncccc2OCC(F)(F)F)n1` [Trifloxysulfuron Na^+, N-[[(4,6-dimethoxy-2-pyrimidinyl)amino]-carbonyl]-3-(2,2,2-trifluoroethoxy)-2-pyridinesulfonamide]: in data set [2], the “% Visual Injury Heterozygous GAT-HRA” value came out at 0% and the “Fresh Weight (g) Heterozygous GAT-HRA” value worked out at 50.8 g. Also, in data set [4], the “% Visual Injury Heterozygous GAT-HRA” value is 29% and the “Fresh Weight (g) Heterozygous GAT-HRA” value is 86.6 g. For the same compound, in data set [5], the “% Visual Injury Parent elite stiff stalk inbred” value turned out to be 100% and the “Fresh Weight (g) Parent elite stiff stalk inbred” value was 1.0 g. Further, in data set [6], the “% Visual Injury Patent elite stiff stalk inbred” value is given as 100% and the “Fresh Weight (g) patent elite stiff stalk inbred” value is 0.0 g.

Regarding `COC(=O)c1cccc(C)c1S(=O)(=O)NC(=O)Nc1nc(OCC(F)(F)F)nc(N(C)C)n1` [Triflusulfuron-methyl], in data set [2], the “% Visual Injury Heterozygous GAT-HRA” value was found to be 5% and the “Fresh Weight (g) Heterozygous GAT-HRA” value was 53.5 g. In data set [4], the “% Visual Injury Heterozygous GAT-HRA” value is listed as 8% and the “Fresh Weight (g) Heterozygous GAT-HRA” value amounted to 110.9 g. In addition, in data set [5], the “% Visual Injury Parent elite stiff stalk inbred” value came out at 100% and the “Fresh Weight (g) Parent elite stiff stalk inbred” value was 2.1 g. Besides, in data set [6], the “% Visual Injury Patent elite stiff stalk inbred” value is 100% and the “Fresh Weight (g) patent elite stiff stalk inbred” value was 26.3 g.

In the case of Imazamethabenz-methyl, in data set [2], the “% Visual Injury Heterozygous GAT-HRA” value is 15% and the “Fresh Weight (g) Heterozygous GAT-HRA” value is 48.5 g. In data set [4], the “% Visual Injury Heterozygous GAT-HRA” value is given as 16% and the “Fresh Weight (g) Heterozygous GAT-HRA” value turned out to be 95.0 g. In addition, in data set [5], the “% Visual Injury Parent elite stiff stalk inbred” value came out at 11% and the “Fresh Weight (g) Parent elite stiff stalk inbred” value was found to be 66.9 g. In data set [6], the “% Visual Injury Patent elite stiff stalk inbred” value worked out at 61% and the “Fresh Weight (g) patent elite stiff stalk inbred” value worked out at 36.2 g.
